In patent US20110190235A1, “BORON-CONTAINING SMALL MOLECULES AS ANTIPROTOZOAL AGENTS” (Anacor Pharmaceuticals, Inc., priority 2009, published 2011):
Values after ≈ are worked out from the molar mass of the structure shown.

Test: Kinetic solubility by nephelometric (light scattering) method
Format: physicochemical
Conditions: PBS pH 7.4
Procedure: The kinetic solubilities of compounds were estimated using a nephelometric (light scattering) method. Briefly, compounds were serially diluted in DMSO, followed by dilution in PBS pH 7.4. After incubation, the amount of light scattered by a compound at each concentration was measured. […] At concentrations above the solubility limit, the compound precipitates and the precipitant in the well scatters the light, generating a signal. Higher levels of precipitant in a well scatter more light and produce a stronger signal.
A stock solution of compound (25 mM in DMSO) was prepared, and was serially diluted in DMSO in two-fold increments in a row of a 96 well plate to a lowest concentration of 24 μM. A duplicate plate was prepared by transfer of half of the volume of each well to a new plate. Each well containing DMSO solution of the test compound was then diluted further (1:100) with phosphate buffered saline (pH 7.4) to provide aqueous solutions of compound at the following final concentrations: 250, 125, 62.5, 31.3, 15.6, 7.8, 3.9, 2.0, 1.0, 0.5 and 0.2 μM. All liquid handling stages were performed on a Beckman Coulter Biomek NX Laboratory Automation Workstation. Each compound was diluted and tested in duplicate, providing four separate wells at each test concentration.
The test solutions of compound were incubated at room temperature for 90 minutes and then analyzed using a Thermoskan Ascent nephelometric plate reader. The nephelometer protocol included two steps: first, the plate was shaken for 60 seconds at 1200 rpm, then each well of the plate was read in succession with an 800 ms settling delay between measurements. The total measurement time for a single plate was less than 4 minutes.
The four values (in nephelometric units) obtained for each compound at each concentration were averaged and plotted on a log scale versus concentration.

For `CC1(C)OB(O)c2cc(NC(=O)c3ccc(F)cc3C(F)(F)F)ccc21` [compound 82], the “Solubility” value was 25 µM (≈ 9.18 µg/mL).
